Here are results for 54 compounds from PubChem BioAssay AID179 (DTP/NCI, 2004).

The test system of this assay is CEM cells HIV-1 protection, formazan growth assay. Briefly: NCI AIDS Antiviral Assay. Particulars: for pIC50: measured here: growth of uninfected CEM cells. The gist of the method:
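CEM (human) cells, HIV-1 infected vs uninfected, 5-point dosing, formazan growth read-out. Retest threshold 50% protection.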

pEC50, pIC50: −log10 of the molar value. Activity calls are given as the source filed them.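 How the source made its calls: active means compounds giving half or more protection of infected cells from virus-caused growth loss, again on retest; inactive means the rest.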

A word on the pEC50: it is the EC50 on a negative log10 scale, so that one unit is a factor of ten. As usually defined, the pIC50 is the negative decadic logarithm of the IC50, by convention in mol/L. Consider `C/C=C/CC(C)C(OS(=O)(=O)O)C1C(=O)NC(CC)C(=O)N(C)CC(=O)N(C)C(CC(C)C)C(=O)NC(C(C)C)C(=O)N(C)C(CC(C)C)C(=O)NC(C)C(=O)NC(C)C(=O)N(C)C(CC(C)C)C(=O)N(C)C(CC(C)C)C(=O)N(C)C(C(C)C)C(=O)N1C` (stereo not given), for which the negative logarithm of the EC50 (pEC50) is 6.18 and the pIC50 was 5.18.

As to `C[Si]1(C)CCCSC1`, the pEC50 was less than 3.70 and the pIC50 is less than 3.70.

With `CN1CN(c2ccccc2)C2(CCN(Cc3nc4ccccc4s3)CC2)C1=O`, the pEC50 was less than 3.70 and the pIC50 was 4.51.

`[O-]c1on[n+](-c2ccccc2)c1-c1ccccc1`: the pEC50 is less than 3.82 and the pIC50 is 4.13.

Consider `CC[N+](C)(CC)Cc1ccccc1[N+](=O)[O-]`, for which the pEC50 was less than 3.70 and the pIC50 was 3.90.

On to `CCCCOC(=O)NC(Nc1ccc(S(=O)(=O)Nc2ncccn2)cc1)(C(F)(F)F)C(F)(F)F`, for which the pEC50 is less than 3.70 and the pIC50 is less than 3.70.

In the case of `Cc1cnc2c(ccc3c(C)c(C)cnc32)c1C.Cc1cnc2c(ccc3c(C)c(C)cnc32)c1C.O=C1OC(C(O)C[O-])C(O)=C1O.[Cu+]`, the pEC50 is less than 4.60 and the pIC50 was 6.04.

With `CC1NC(C)SC(C)S1` (stereo not given), the pEC50 is less than 3.70 and the pIC50 was less than 3.70.

Regarding `CC(=O)O[C@H]1C#C/C=C\C#CC[C@@H]2C(=O)N(C(=O)OC(C)(C)C)[C@@H]12`, the pEC50 is less than 4.70 and the pIC50 is 5.95.

For the compound `COC(=O)c1ccccc1/C=C1\Cc2ccc3c(c2C1=O)CCCC3`, the pEC50 was less than 3.70 and the pIC50 was less than 3.70.

Take `Cc1cc([C@H](C#N)c2nc3ccccc3s2)nc(Cl)n1`: the pEC50 was less than 4.82 and the pIC50 was 5.98.

Turning to `C1CCC2(CC1)SSC1(CCCCC1)S2`, the pEC50 is less than 3.70 and the pIC50 is 3.96.

On to `Nc1ncnc2c1S(=O)(=O)NCN2`, for which the pEC50 is less than 3.75 and the pIC50 was less than 3.75.

`c1nc2nc3c(cn2n1)CCCC3`: the outcome was inactive.

Take `CCN(CC)CCNc1ccc(C)c2sc3ccccc3c(=O)c12`: the pEC50 is less than 3.70 and the pIC50 is 4.96.

On to `Cc1nc(Nc2ccc(Cl)cc2Cl)sc1C(=O)Nc1ccccc1`, for which the pEC50 was less than 3.70 and the pIC50 was 3.93.

With `CCC1(CC)c2ccccc2C(CC)(CC)[N+]1(C)C`, the pEC50 was less than 3.70 and the pIC50 is 4.07.

Turning to `O=C(O)c1ccccc1S`, the pEC50 is less than 3.70 and the pIC50 was less than 3.70.

As for `CC(C)(C)C(=O)/C=C/c1ccc(Br)cc1`, the result was inactive.

Regarding `CN(C)c1ccc(/C=C(/C(=O)O)c2csc(-c3nc(/C(=C\c4ccc(N(C)C)cc4)C(=O)O)cs3)n2)cc1`, the pEC50 is less than 4.46 and the pIC50 was less than 4.46.

Take `O=c1c2cc(Br)ccc2ncn1COCc1ccccc1`: the pEC50 was less than 3.70 and the pIC50 was 4.05.

Turning to `CC1(C)OC(=O)C(=Cc2ccccc2Cl)C(=O)O1`, the pEC50 was less than 3.31 and the pIC50 is 5.61.

With `CC1CN=C(Nc2ccccc2)S1` (stereo not given), the pEC50 was less than 3.70 and the pIC50 is less than 3.70.

For the compound `CC[C@@]1(OS(=O)(=O)O)CCC2C3CC=C4CC(O)CC[C@]4(C)C3CC[C@@]21C` (stereo not given in full), the pEC50 is 3.97 and the pIC50 is 3.65.

On to `CCCN(CCCCC(NC(C)=O)C(=O)NCc1ccccc1)C(=O)NCCCl` (stereo not given), for which the pEC50 was less than 3.23 and the pIC50 was less than 3.23.

Turning to `NC(=S)/N=C/c1c(O)c2ccccc2oc1=O`, the pEC50 is less than 4.26 and the pIC50 was less than 4.26.

In the case of `CC(=O)O[C@@H]1CCN(C(=O)C(NC(=O)OC(C)(C)C)C(C)C)[C@@H]1C(O)CC(=O)O` (stereo not given in full), the pEC50 was less than 3.70 and the pIC50 is less than 3.70.

As to `COC(=O)C(=O)c1cc2ccccc2n1S(=O)(=O)c1ccccc1`, the pEC50 is less than 3.70 and the pIC50 was less than 3.70.

`CC1CC12OC(=O)N(c1cc(Cl)cc(Cl)c1)C2=O` (stereo not given): the pEC50 is less than 3.70 and the pIC50 was 4.50.

As for `CCOC1c2cc(OC)c(OC)cc2-c2ccc3ccccc3c2N1C` (stereo not given), the pEC50 was less than 4.13 and the pIC50 is 4.99.

As for `Cc1ccc(C(=O)N2CCCCC2)cc1N=NN(C)C`, the pEC50 is less than 3.58 and the negative logarithm of the IC50 (pIC50) is 3.62.

Turning to `Cc1ccc(C(=O)c2c(C)cccc2C(=O)O)c(C)c1`, the pEC50 was less than 3.70 and the pIC50 is less than 3.70.

`O=C(O)C(CS(=O)(=O)O)S(=O)(=O)O` (stereo not given): the outcome was inactive.

For `CSc1n[nH]c(NC(=O)c2ccccc2CS)n1`, the pEC50 was less than 4.19 and the pIC50 was less than 4.19.

On to `O=C(CC(=O)n1nc(-c2ccccc2)c(N=Nc2ccc([N+](=O)[O-])cc2)c1-c1ccccc1)Nc1ccc(Cl)cc1`, for which the pEC50 was less than 4.34 and the pIC50 is less than 4.34.

For the compound `CN1C(=O)Nc2ncn(C)c2S1(=O)=O`, the pEC50 was less than 3.22 and the pIC50 is less than 3.22.

Turning to `CCN(CC)C(=S)N/N=C/c1cc(OC)ccc1O`, the pEC50 is less than 3.70 and the pIC50 is 5.00.

Turning to `CN(C)C(=S)/N=C1\SC(=Nc2ccccc2)C(=Nc2ccccc2)N1c1ccc([N+](=O)[O-])cc1`, the pEC50 was less than 3.70 and the pIC50 was 3.86.

On to `Cc1cc(Cl)ccc1NC(=O)C1C(=O)N(c2ccc(Cl)cc2C)C(=O)/C1=N\N` (stereo not given), for which the outcome was inactive.

On to `O=C(CC(=O)Nc1ccccc1O)Nc1ccccc1O`, for which the pEC50 is less than 3.35 and the pIC50 is 4.65.

Consider `Cc1ccc(S(=O)CC(CF)OCn2cc(C)c(=O)[nH]c2=O)cc1` (stereo not given), for which the result was inactive.

For the compound `NC(=O)CCCCNC(=O)c1ccccc1SC(=O)CCCC[n+]1ccccc1`, the negative-log EC50 (pEC50) is 5.90 and the pIC50 was 4.97.

On to `C=CCCC1CCCNC1=S` (stereo not given), for which the pEC50 is less than 3.11 and the pIC50 is 3.15.

As for `CC1(C)CCc2ccc(OCCC(=O)O)cc2O1`, the result was inactive.

As for `COc1cc2c(cc1C)C1=C(C)C(=O)OC1[C@@H](O)[C@@H]2C` (stereo not given in full), the pEC50 is less than 3.18 and the pIC50 is 3.61.

`C=C(COCO)C(C)=O`: the pEC50 was less than 3.70 and the negative-log IC50 (pIC50) is 5.84.

On to `Cc1nc(-c2cc3ccccc3oc2=O)cs1`, for which the outcome was inactive.

For the compound `CC1(CN2CCCCC2)COC(c2ccccc2)(c2ccccc2)OC1`, the pEC50 was less than 3.70 and the pIC50 was 4.53.

For the compound `CC(=O)OC1COC(Nc2nc(NCc3ccccc3)n(C)c(=O)c2N=O)C(OC(C)=O)C1OC(C)=O` (stereo not given), the pEC50 is less than 3.70 and the pIC50 is less than 3.70.

Regarding `O=c1[nH]c(=O)n(C2OC(CO)C(O)C2O)c2ncncc12` (stereo not given), the pEC50 is less than 3.70 and the pIC50 was less than 3.70.

Turning to `COc1ccc2nc3cc(Cl)ccc3c(NCCC(=O)OCC(O)C(O)C(O[C@H](C)C(=O)NC(C)C(=O)NC(CCC(N)=O)C(=O)OCc3ccccc3)C(C=O)NC(C)=O)c2c1` (stereo not given in full), the pEC50 is 6.02 and the pIC50 was 5.33.

As for `COC(=O)C(/C(=N\NC(N)=S)C(=O)Nc1ccccc1[N+](=O)[O-])c1cnc2ccccc2n1` (stereo not given), the pEC50 was less than 3.84 and the pIC50 is less than 3.84.

With `COc1ccccc1NC(=O)/C(C=NC(=S)c1ccncc1)=C(\C)O`, the result was inactive.

On to `Nc1c(Cl)ncnc1Nc1ccc(Cc2ccc(Nc3ncnc(Cl)c3N)cc2)cc1`, for which the pEC50 was less than 4.10 and the pIC50 was less than 4.10.
